Source: US11712443B2, “17α-monoesters and 17α,21-diesters of cortexolone for use in the treatment of tumors” (COSMO TECHNOLOGIES LTD., priority 2014, dated 2023)

How the values were obtained:
[1] = tested on: Caspase 3/7; test: Caspase activity assay in MiaPaca2 cells; assay type: cell-based; conditions: 8, 24, 48 hours, FIG. 11
Method: To better analyze the phenomenon the enzymatic activity of Caspase 8 (initiator caspase for Extrinsic Pathway) and Caspase 9 (initiator caspase for Intrinsic Pathway) and of Caspases 3 and 7 (effector caspases) were measured.
After 8, 24, & 48 hours incubation with test compounds, cells were lysed in buffer containing the caspase 3/7 or 8 or 9 substrate and a stable luciferase in proprietary buffers. The lysates were transferred to white opaque plates before measuring luminescence in a Tecan S afire instrument. Parallel plates treated identically, were used to determine viable cells. All caspase activities were corrected for the number of viable cells.

[2] = tested on: MDA-MB-231; test: In vitro proliferation / cytotoxic assay on breast cancer cells (cell titer glo); assay type: cell-based
Method: (§1) For the cytotoxic assay: cells seeded in 96 well flat bottom culture plates in media containing charcoal stripped serum. After 24 hours test compounds were added to the cells. DMSO was used as the vehicle negative control and RU486 as the positive control. After 72 hours incubation cell were harvested, lysed and viability determined using the cell titer glow assay for viability.

[3] = tested on: stimulated PBMC; test: IC50 on stimulated PBMC (actively dividing cells); conditions: for Therapeutic Index = IC50 resting PBMC/IC50 cancer cell: PBMC Stim, healthy lymphocyte, Table IV; for Therapeutic Index = IC50 stimulated PBMC/IC50 cancer cell, AVERAGE: average across the 7 cancer cell lines, Table VII
Method: The IC^50 in PBMC were tested in 2 different activation status:
stimulated—actively dividing cells
IC50 of the compounds was determined on fresh cells isolated from human blood (PBMC). The compounds toxicity was determined as follow: Therapeutic Index=Safety/Potency=IC50 stimulated PBMC_/IC50 cancer cell

[4] = tested on: HT29; test: In vitro proliferation, larger cancer cell line panel; conditions: Homo sapiens, HT-29, read-out: in vitro proliferation IC50
[5] = tested on: LNCaP prostate cancer xenograft; test: Human prostate cancer xenograft in nude mice, oral treatment; assay type: in vivo
Method: 3×10^6 LNCaP cells suspended in matrigel were subcutaneously injected (on the right flank) into 6 week old male athymic nude mice. Tumors were measured as described above. Treatment with CB-03-10 and controls compounds was initiated after the tumor had reached 50 mm3. […] Oral dosing was daily (100 mg/Kg in 200 μL/mouse) for 28 consecutive days. Results were plotted as average change in tumor volume relative to the start of treatment.

[6] = tested on: MCF7; test: In vitro proliferation / cytotoxic assay on breast cancer cells (cell titer glo); conditions: MCF7 (ER+PR+GR+/-); 72 hours; Table VI prints no unit (same values in Table III in μM)
Method: as §1

[7] = tested on: LNCaP; test: ATP-dependent proliferation/viability assay (Cell Titer Glo), 3 days; conditions: Homo sapiens, LNCaP, 72 h, LNCaP (AR+); 10 nM DHT; 3 days; Examples 1-2 Experiment 1, sigmoidal dose response fit
Method: (§2) The experiment was performed to test and to define the antitumor activity in vitro of cortexolone 17α-benzoate on LNCaP (AR+) and PC3 (AR^−), representative of Prostatic cancer cell lines with Androgen Receptor (AR) positive or negative expression, respectively. The experimental method consisted of: • 1. […] After 24 hours, 10 nM DHT (dihydrotestosterone) with or without anti-androgen compounds, or DMSO vehicle (negative control) was added to the cultures. • 3.
as §2, with “define” for “define the”, “17α-valerate-21-propionate (CB-03-10)” for “17α-benzoate”, “AR” for “Androgen Receptor (AR)”

[8] = tested on: MiaPaca-2 pancreatic tumor xenograft; test: Human pancreatic tumor xenograft in nude mice, subcutaneous treatment; assay type: in vivo; conditions: for average tumor size increase: Cyproterone Acetate treatment groups (7.4 mg/kg and 37 mg/kg) SC daily 28 days
Method: The test was carried out comparing the anti-tumor activity of cortexolone 17α-benzoate at two different dosages (8.0 mg/kg, corresponding approximately at 230 μM, and 40 mg/kg, corresponding approximately at 1150 μM), versus the vehicle (i.e. 0.4% (v/v) tween 80 and 0.5% (w/v) carboxymethylcellulose in normal saline) and versus the comparator Cyproterone Acetate at two different dosages (7.4 mg/kg and 37 mg/kg).
1×10^6 MiaPaca-2 cells suspended in matrigel were subcutaneously injected into 6 week old athymic nude mice.
The treatment with the tested compounds, with the vehicle and with the comparative compound, was initiated after the tumor volume has reached 50 mm3 after transplantation. All compounds were injected 100 μL/mouse subcutaneously of low dose solution (approximately 230 μM) or 100 μL/mouse of high dose solution (approximately 1150 μM) of cortexolone 17α-benzoate, vehicle and cyproterone acetate, respectively. Compounds and controls were administered subcutaneously daily for 28 days.
Tumors were measured every 4 days with a digital caliper.
The results are plotted in FIG. 1 as average change in tumor volume relative to the start of treatment. Tumor volume was calculated according to the formula 0.5236(r1)^2(r2) where r1<r2.
The test was carried out comparing the anti-tumor activity of cortexolone 17α-valerate-21-propionate (CB-03-10) at two different dosages (approximately 8.6 mg/kg and 43 mg/kg) versus the vehicle (i.e. 0.4% (v/v) tween 80 and 0.5% (w/v) carboxymethylcellulose in normal saline) and versus the comparator Cyproterone Acetate at two different dosages (7.4 mg/kg and 37 mg/kg).
The treatment with the tested compound, with the vehicle and with the comparative compound was initiated after the tumor has reached a volume of 50 mm3 after implantation, injecting subcutaneously 100 μL/mouse of low dose solution (approximately 230 μM) or 100 μL/mouse of high dose solution (approximately 1150 μM) of cortexolone 17α-valerate-21-propionate (CB-03-10), vehicle and cyproterone acetate, respectively. Compounds and controls were administered subcutaneously daily for 28 days.
The results are plotted in FIG. 2 as average change in tumor volume relative to the start of treatment. Tumor volume was calculated according to the formula 0.5236(r1)^2(r2) where r1<r2.
CPA a well-known anti-androgen was used as control. Briefly 1×10^6 MiaPaca2 cells suspended in matrigel were subcutaneously (SC) injected into 6 week old male athymic nude mice. Tumors were measured every 4 days with a digital caliper. Tumor volume was calculated according to the formula: 0.5236(r1)2(r2) where r1<r2. Treatment with CB-03-10 and controls compounds was initiated after the tumor had reached 50 mm3. Compounds diluted in DMSO/2-hydroxypropyl b-cyclodextrin (vehicle) were injected subcutaneously (SC) daily (100 μL/mouse) at the concentration of 40 mg/Kg daily for 28 consecutive days.

[9] = tested on: Panc1; test: ATP-dependent proliferation/viability assay (Cell Titer Glo), 3 days; conditions: IC50 stimulated PBMC / IC50 Panc1; Experiment 1; 0 = higher toxicity in PBMC than in the cancer cell lines

For `Nc1ccn([C@@H]2O[C@H](CO)[C@@H](O)C2(F)F)c(=O)n1` [Gemcitabine, reference compound], the “Caspase 3/7 induction / caspase activation profile” value [1] was “not seen until the 48 hours mark”.
For `CCCCC(=O)O[C@]1(C(=O)CO)CC[C@H]2[C@@H]3CCC4=CC(=O)CC[C@]4(C)[C@H]3CC[C@@]21C` [CB-03-05, cortexolone 17α-valerate], the IC50 ([2]; MDA-MB-231 (ER-PR-GR++), TNBC, 72 hours, Table VI prints no unit (same values in Table III in μM)) was “Not active”, the “in vitro proliferation IC50” value ([2]; MDA-MB-231, Table III) was “not active” and the “Caspase 3/7 induction / caspase activation profile” value [1] was “does not show a good profile for caspase activation”. The “Therapeutic Index = IC50 resting PBMC/IC50 cancer cell” value [3] was 1, the “Therapeutic Index = IC50 stimulated PBMC/IC50 cancer cell, AVERAGE” value [3] was 3 and the IC50 [4] was 530 µM.
In the case of `CNC(=O)c1ccc(N2C(=S)N(c3ccc(C#N)c(C(F)(F)F)c3)C(=O)C2(C)C)cc1F` [Enzalutamide, reference compound], the “prostate tumor size increase after treatment was stopped” value ([5]; oral 100 mg/Kg daily 28 days, after stop) is reported as 8 fold and the “statistical significance of tumor growth versus vehicle” value ([5]; oral gavage, FIG. 16) is reported as “statistically significant only on days 14 and 25”.
With `CC#C[C@]1(O)CC[C@H]2[C@@H]3CCC4=CC(=O)CCC4=C3[C@@H](c3ccc(N(C)C)cc3)C[C@@]21C` [RU486, Mifepristone, reference compound] the IC50 [6] was “Not active”.
In the case of `CCCC(=O)OC1(C(=O)CO)CCC2C3CCC4=CC(=O)CC[C@]4(C)C3=CC[C@@]21C` (single isomer, unassigned) [CB-03-04], the “Therapeutic Index = IC50 resting PBMC/IC50 cancer cell” value [3] is reported as 1 and the “Therapeutic Index = IC50 stimulated PBMC/IC50 cancer cell, AVERAGE” value [3] is reported as 4.
`CCCC(=O)OCC(=O)[C@@]1(OC(=O)CCC)CCC2C3CCC4=CC(=O)CC[C@]4(C)C3CC[C@@]21C` (some centres unmarked) [CB-03-03] was tested, and the “Therapeutic Index = IC50 resting PBMC/IC50 cancer cell” value [3] was 1 and the “Therapeutic Index = IC50 stimulated PBMC/IC50 cancer cell, AVERAGE” value [3] was 4.
In the case of `CCC(=O)O[C@]1(C(=O)CO)CC[C@H]2[C@@H]3CCC4=CC(=O)CC[C@]4(C)[C@H]3CC[C@@]21C` [CB-03-01], the “Therapeutic Index = IC50 resting PBMC/IC50 cancer cell” value [3] is reported as 1 and the “Therapeutic Index = IC50 stimulated PBMC/IC50 cancer cell, AVERAGE” value [3] is reported as 0.
For `CC(=O)O[C@]1(C(C)=O)CC[C@H]2[C@@H]3C=C(Cl)C4=CC(=O)[C@@H]5C[C@@H]5[C@]4(C)[C@H]3CC[C@@]21C` [Cyproterone Acetate, Cyproterone acetate, reference compound], the IC50 [7] was 29 µM, the “average tumor size increase” value ([8]; Example 5) was 12 fold and the “average tumor size increase” value ([8]; Example 6) was no less than 12 fold. For the same molecule, the Median survival ([8]; Example 22, 40 mg/Kg SC daily 28 days, vehicle 60 days) was 40 days, the “Therapeutic Index = IC50 resting PBMC/IC50 cancer cell” value [3] was 1 and the “Therapeutic Index = IC50 stimulated PBMC/IC50 cancer cell, AVERAGE” value [3] was 1. For the same molecule, the “TI on Stimulated PBMC” value [9] was 1.
